Results as given in patent US10208021B2, “Substituted tetrahydroisoquinoline compounds as factor XIa inhibitors” (BRISTOL-MYERS SQUIBB COMPANY, priority 2011, dated 2019).
pKi: −log10 of the molar value. Where a name gives a salt, the structure may show the parent alone.

Molecular target: purified human Factor XIa (Homo sapiens (Human), UniProt P03951)
Assay: Factor XIa chromogenic substrate (S-2366) inhibition assay
Assay type: biochemical
Conditions: substrate S-2366, Table 1
Method in brief: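 Ki derived from reaction velocities measured in the presence of inhibitor. Purified protease hydrolysed the chromogenic substrate; rate of absorbance change was followed over 20-180 minutes, depending on the protease.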

Chain of purified human Factor XIa (P03951 388-625): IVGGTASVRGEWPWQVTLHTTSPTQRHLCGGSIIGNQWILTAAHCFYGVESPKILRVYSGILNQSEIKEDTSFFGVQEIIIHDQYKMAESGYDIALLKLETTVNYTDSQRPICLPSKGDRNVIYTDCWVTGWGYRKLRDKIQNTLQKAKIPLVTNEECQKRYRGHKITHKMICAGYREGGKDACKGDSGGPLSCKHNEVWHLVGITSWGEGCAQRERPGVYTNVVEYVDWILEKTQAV
Chain of purified human Factor XIa (P03951 19-387 partner): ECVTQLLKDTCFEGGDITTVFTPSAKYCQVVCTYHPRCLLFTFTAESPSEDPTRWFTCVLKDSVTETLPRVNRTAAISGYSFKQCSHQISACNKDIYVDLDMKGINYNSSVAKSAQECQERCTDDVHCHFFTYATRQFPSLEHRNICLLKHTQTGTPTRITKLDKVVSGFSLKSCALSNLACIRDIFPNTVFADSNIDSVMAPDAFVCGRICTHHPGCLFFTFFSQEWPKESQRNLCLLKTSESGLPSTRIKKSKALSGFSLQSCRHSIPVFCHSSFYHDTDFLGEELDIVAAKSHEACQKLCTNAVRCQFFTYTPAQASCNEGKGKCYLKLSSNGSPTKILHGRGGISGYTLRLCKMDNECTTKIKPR

pKi | Compound
5.25 | O=C(O)c1ccc(NC(=O)[C@H]2c3cccc(N4CCCCC4=O)c3CCN2C(=O)/C=C/c2cc(Cl)c(F)cc2-n2cnnn2)cc1 [compound 41]

Same assay, conditions: substrate S-2366, activity ranges, Table A

pKi | Compound
> 8.30 | CC1(C)Cc2c(cccc2N2CCNCC2)[C@@H](C(=O)Nc2ccc(C(=O)O)cc2)N1C(=O)/C=C/c1c(-n2cnnn2)ccc(Cl)c1F [Example 194, (S,E)-4-(2-(3-(3-Chloro-2-fluoro-6-(1H-tetrazol-1-yl)phenyl)acryloyl)-3,3-dimethyl-5-(piperazin-1-yl)-1,2,3,4-tetrahydroisoquinoline-1-carboxamido) benzoic acid, bis-TFA salt]
8.00 to 8.30 | CCOC(=O)c1ccc(NC(=O)[C@H]2c3cccc(N4CCCCC4=O)c3CCN2C(=O)/C=C/c2c(-n3cnnn3)ccc(Cl)c2F)cc1 [compound 44]
> 8.30 | O=C(O)c1ccc(NC(=O)C2c3cccc(N4CCC(N5CCCC5)CC4)c3CCN2C(=O)/C=C/c2c(-n3cnnn3)ccc(Cl)c2F)cc1 (stereo not drawn) [Example 80, (E)-4-(2-(3-(3-Chloro-2-fluoro-6-(1H-tetrazol-1-yl)phenyl)acryloyl)-5-(4-(pyrrolidin-1-yl)piperidin-1-yl)-1,2,3,4-tetrahydroisoquinoline-1-carboxamido)benzoic acid, bis TFA Salt]
8.00 to 8.30 | CCOC(=O)c1ccc(NC(=O)C2c3cccc(N4CCC(N5CCCC5)CC4)c3CCN2C(=O)C=Cc2c(-n3cnnn3)ccc(Cl)c2F)cc1 (stereo not drawn) [Example 93]
> 8.30 | CN1CCN(c2cccc3c2CCN(C(=O)C=Cc2c(-n4cnnn4)ccc(Cl)c2F)C3C(=O)Nc2ccc(C(=O)O)cc2)CC1 (stereo not drawn) [compound 31]
> 8.30 | O=C(O)c1ccc(NC(=O)C2c3cccc(N4CCNCC4)c3CCN2C(=O)/C=C/c2c(-n3cnnn3)ccc(Cl)c2F)cc1 (stereo not drawn) [Example 3]
8.00 to 8.30 | CCOC(=O)c1ccc(NC(=O)C2c3cccc(N4CCC(N5CCCC5)CC4)c3CCN2C(=O)C=Cc2c(C#N)ccc(Cl)c2F)cc1 (stereo not drawn) [Example 166]
6.30 to 7.00 | CCOC(=O)c1cc(C)n(-c2cccc3c2CCN(C(=O)/C=C/c2c(-n4cnnn4)ccc(Cl)c2F)C3C(=O)Nc2ccc(F)cc2)n1 (stereo not drawn) [Example 242, (E)-Ethyl 1-(2-(3-(3-chloro-2-fluoro-6-(1H-tetrazol-1-yl)phenyl)acryloyl)-1-(4-fluorophenylcarbamoyl)-1,2,3,4-tetrahydroisoquinolin-5-yl)-5-methyl-1H-pyrazole-3-carboxylate]
> 8.30 | O=C(O)c1ccc(NC(=O)C2c3cccc(N4CCC(N5CCCC5)CC4)c3CCN2C(=O)C=Cc2c(C(F)(F)F)ccc(Cl)c2F)cc1 (stereo not drawn) [Example 178]
> 8.30 | COCCOC(=O)c1ccc(NC(=O)C2c3cccc(N4CCC(N5CCCC5)CC4)c3CCN2C(=O)C=Cc2c(C(C)=O)ccc(Cl)c2F)cc1 (stereo not drawn) [Example 174]
8.00 to 8.30 | CCOC(=O)c1ccc(NC(=O)C2c3cccc(N4CCC5(CCN(C)C5=O)CC4)c3CCN2C(=O)/C=C/c2c(-n3cnnn3)ccc(Cl)c2F)cc1 (racemic) [Example 109]
> 8.30 | CN(C)CCN1CCN(c2cccc3c2CCN(C(=O)/C=C/c2c(-n4cnnn4)ccc(Cl)c2F)C3C(=O)Nc2ccc(C(=O)O)cc2)CCC1=O (racemic) [Example 263]
> 8.30 | COC(=O)Nc1ccc(NC(=O)C2c3cccc(N4CCC(N5CCCC5)CC4)c3CCN2C(=O)/C=C/c2c(-n3cnnn3)ccc(Cl)c2F)cc1 (racemic) [Example 89]
> 8.30 | CN1CCCN(c2cccc3c2CCN(C(=O)/C=C/c2c(-n4cnnn4)ccc(Cl)c2F)C3C(=O)Nc2ccc(C(=O)O)cc2)CC1 (racemic) [Example 262]
8.00 to 8.30 | CCOC(=O)c1ccc(NC(=O)C2c3cccc(N4CCOCC4=O)c3CCN2C(=O)/C=C/c2c(-n3cnnn3)ccc(Cl)c2F)cc1 (racemic) [Example 51]
8.00 to 8.30 | O=C(O)c1ccc(NC(=O)C2c3cccc(N4CCC(N5CCCC5)CC4)c3CCN2C(=O)C=Cc2c(-n3cnnn3)ccc(Cl)c2F)cc1 (stereo not drawn) [Example 88]
> 8.30 | CC1(C)Cc2c(cccc2N2CCNCC2)C(C(=O)Nc2ccc(C(=O)O)cc2)N1C(=O)/C=C/c1c(-n2cnnn2)ccc(Cl)c1F (stereo not drawn) [Example 78, (E)-4-(2-(3-(3-chloro-2-fluoro-6-(1H-tetrazol-1-yl)phenyl)acryloyl)-3,3-dimethyl-5-(piperazin-1-yl)-1,2,3,4-tetrahydroisoquinoline-1-carboxamido)benzoic acid, bis-TFA Salt]
> 8.30 | O=C(Nc1ccc2cn[nH]c2c1)C1c2cccc(N3CCOCC3=O)c2CCN1C(=O)/C=C/c1c(-n2cnnn2)ccc(Cl)c1F (racemic) [Example 47]

Compound | pKi
CCOC(=O)CCNC(=O)N1CCN(c2cccc3c2CCN(C(=O)/C=C/c2cc(Cl)ccc2-n2cnnn2)C3C(=O)Nc2ccc(C(=O)O)cc2)CC1 (stereo not drawn) [Example 21] | > 8.30
O=C(Nc1ccc(F)cc1)C1c2cccc(N3CCNCC3)c2CCN1C(=O)/C=C/c1cc(Cl)ccc1-n1cnnn1 (stereo not drawn) [Example 2] | 6.30 to 7.00
